Values quoted from earlier work, collected in US6586576B2, “Preparation method of azithromycin hydrates” (Teva Pharmaceutical Industries LTD, priority 2000, dated 2003).
Like-named read-outs stand apart in the source and are kept apart here.

Assays:
[1] = crystal/hydrate form, per EP 298 650 and CN 1,093,370

## CC[C@H]1OC(=O)[C@H](C)[C@@H](O[C@H]2C[C@@](C)(OC)[C@@H](O)[C@H](C)O2)[C@H](C)[C@@H](O[C@@H]2O[C@H](C)C[C@H](N(C)C)[C@H]2O)[C@](C)(O)C[C@@H](C)CN(C)[C@H](C)[C@@H](O)[C@]1(C)O [azithromycin dihydrate]
[1]; dihydrate
  hygroscopic nature: less hygroscopic than the previously known azithromycin monohydrate

## CC[C@H]1OC(=O)[C@H](C)[C@@H](O[C@H]2C[C@@](C)(OC)[C@@H](O)[C@H](C)O2)[C@H](C)[C@@H](O[C@@H]2O[C@H](C)C[C@H](N(C)C)[C@H]2O)[C@](C)(O)C[C@@H](C)CN(C)[C@H](C)[C@@H](O)[C@]1(C)O [azithromycin monohydrate]
[1]; monohydrate
  hygroscopic nature: hygroscopic

## CC[C@H]1OC(=O)C(C)C(OC2CC(C)(OC)C(O)C(C)O2)C(C)C(OC2OC(C)CC(N(C)C)C2O)C(C)(O)CC(C)CN(C)C(C)C(O)C1(C)O (stereo partly drawn) [azithromycin, 9-deoxo-9a-aza-9a-methyl-9a-homoerythromycin A]
other
  stability under acidic conditions: not stable
